What was measured:
MDA-MB-231 = assay: growth inhibition (GI50) of tumor cell lines; type: cell-based; settings: MDA-MB-231, FIG. 1
Description: A number of tumor cell lines representing breast, lung, colon, ovarian and prostate cancer as well as melanoma were assayed under standard growth conditions in presence of varying amounts of diazonamide A, a hydroxylated form of Compound J, Compound J, paclitaxel and vinblastine. The results are graphed as the concentration that diminishes growth by a factor of two (GI50) in FIG. 1.

HCT116 xenografts = assay: growth inhibition of HCT116 xenografts; type: in vivo, mice; settings: HCT116 (colon), 0.45 mg/kg, IP
Description: Details of the preparation of murine models containing xenografts of HCT116 cells or PC-3 cells are described in the section following these examples. After the tumors were grown, therapy utilizing Compound J or paclitaxel was initiated. […] In FIG. 4A, the *'s represent control mice, the squares represent 5 mg/kg Compound J; the diamonds represent 20 mg/kg Compound J; and the slanted line represents 20 mg/kg paclitaxel.
The details of the protocol for Examples 19 and 20 are as follows:
• PC3 prostrate tumor cells and HCT116 colon tumor cells (acquired from the tumor repository Division of Cancer Treatment and Diagnosis (DCTD) of the NCI • Complete RPMI Media • RPMI (Cat# 11875-085, Invitrogen) • 10% Heat-inactivated (30′ 56° C.) Fetal Bovine Serum (Cat# 100-106, Gemini Bio-Products • 2 mM L-glutamine (Cat# 25030-081, Invitrogen) • 0.1 mM MEM Non-Essential Amino Acids Solution (Cat#11140-050, Invitrogen) • 10 U/ml Penicillin/10 μg/ml Streptomycin (Cat#15140-122, Invitrogen) • 1 mM Sodium Pyruvate (Cat#l 1360-070) • Trypsin-EDTA (Cat#25300-054, Invitrogen) • Ca^2+/Mg^2+-free Phosphate Buffered Saline, 5% dextrose in water • Cell Culture Dish 150 mm×25 mm (Cat# 430599, Coming, Inc.) • 10 and 25 ml pipets, standard pipet-aid, p200 and p1000 pipette tips and standard pipetmen • Athymic NCr-nu/nu nude mice at 6-12 weeks of age, either sex (Strain code: 01B74, NCI Frederick Animal Production Program—suppliers include Charles River Labs and Taconic Farms). Female mice of approximately 7 weeks of age were utilized for existing experiments. • Standard 1 cc tuberculin syringe, 30G½ and 25G⅝ needles (Becton Dickinson) • Falcon 5 ml tubes (Cat#352054) • 50 and 15 ml disposable plastic conical tubes (Falcon or similar vendor) • Trypan Blue Solution (0.4%) (Cat#T8154, Sigma) • Hausser phase contrast hemacytometer (Cat# 02-671-54, Fisher) • Ice bucket • Balance for weighing mice (accurate to 0.2 g) • Vernier calipers • Vivarium facility free from known pathogens (nude mice should be housed in isolation from conventional mice if possible—separate rooms or micro-isolator cages equipped with individual air flow; all animal housing, bedding, water should be autoclaved prior to use; standard irradiated mouse chow should be used; animals should be changed out of cages within laminar flow hood; investigators handling mice should be suitably garbed—disposable gown, bonnet, booties, gloves, mask) • AB-5 (Compound J) compound • Ethyl alcohol, 200 proof (Aaper, MFD 041205) • Cremaphor (Cat# C5135, Sigma) • Paclitaxel (Cat#ANP0010, Polymed Therapeutics) Procedure: • 1) Rapidly thaw PC3 or HCT116 cells (if necessary) in 37° C. water bath. Transfer contents to 9ml complete RPMI media. Spin 5′ at 1200 rpm (240 Xg). Discard media and resuspend pellet in 8 ml complete RPMI media. Plate in 100 mm×25 mm cell culture dish in 5% CO2, 37° C. humidified incubator. • 2) Allow to grow for 5-10 days, splitting (aspirate media, wash with 3-5 ml PBS, add 1 ml trypsin-EDTA, incubate 3-5′ at 37° C., add media to desired volume and transfer to multiple plates) 1:8 to 1:10 every 3-4 days as necessary to allow cells to enter phase of logarithmic growth. • 3) When cells are growing well, begin to expand to 150 mm×25 mm dishes. We use 20 ml of media in a 150 mm dish and use 2 ml of trypsin for splitting. When nearly confluent, there should be 2×10^7 cells/150 mm dish. • 4) Plan ahead to time arrival of nu/nu mice such that they can acclimate to animal facility for 1 week prior to injection of tumor cells. […] Plan to inject 10 million cells/mouse and allow for loss of cells/volume during injection process. That is, if 30 mice are to be injected, plan to harvest cells sufficient for at least 35 injections—35×10 million cells=3.5×10^8 cells. In the existing HCT116 experiment, 7.5×10^6 cells were injected per mouse. Five mice per group were utilized for AB-5 treatment and four mice per group were utilized for the control and paclitaxel treatments. […]

[1] = system: MDA-MB-435 (breast) xenografts; assay: growth inhibition of MDA-MB-435 xenografts; type: in vivo, mice; settings: 0.7 mg/kg, IP

Row | Structure (SMILES) | GI50 (concentration that diminishes growth by a factor of two) (MDA-MB-231) | #Tumor Free (day) (HCT116 xenografts) | % Max T/C (HCT116 xenografts) | Log10 Tumor Cell Kill (HCT116 xenografts) | #Tumor Free (day) [1]
1 | CC[C@]1(O)C[C@@H]2CN(CCc3c([nH]c4ccccc34)[C@@](C(=O)OC)(c3cc4c(cc3OC)N(C)[C@H]3[C@@](O)(C(=O)OC)[C@H](OC(C)=O)[C@]5(CC)C=CCN6CC[C@]43[C@@H]65)C2)C1 [vinblastine, reference compound] | more effective than the remaining drugs | 0/5 | 56.0% | 0.2 | 0/6
2 | CC(C)[C@H](O)C(=O)N[C@H]1Cc2ccc3c(c2)[C@]24C5=C(N=C(O5)[C@H](C(C)C)NC1=O)c1nc(Cl)c(o1)-c1c(Cl)[nH]c5cccc(c15)-c1cccc2c1N[C@@H]4O3 [diazonamide A] | more effective than the remaining drugs |  |  |  | 
